Reference: patent US20110160180A1, “Cannabinoid Receptor Ligands” (ASTRAZENECA AB, priority 2008, published 2011)
Where “and” joins values, the source holds several entries; their conditions need not be identical. Equal entries are not always repeated.

The compounds below were run against Human CB1 receptor (hCB1) (Homo sapiens, UniProt P21554) (assay: hCB1 GTPγS binding). Conditions: hCB1 membranes, GTPg35S binding; maximal stimulated binding determined with 10 μM Win 55,212-2.
Format: biochemical
Description: hCB1 and hCB2GTPγS Binding
Human CB1 receptor from Receptor Biology (hCB1) or human CB2 receptor membranes (BioSignal) are thawed at 37° C., passed 3 times through a 25-gauge blunt-end needle and diluted in the GTPγS binding buffer (50 mM Hepes, 20 mM NaOH, 100 mM NaCl, 1 mM EDTA, 5 mM MgCl2, pH 7.4, 0.1% BSA). […] The basal and maximal stimulated binding is determined in absence and presence of 1 μM (hCB2) or 10 μM (hCB1) Win 55,212-2 respectively. The membranes are pre-incubated for 5 minutes with 56.25 μM (hCB2) or 112.5 μM (hCB1) GDP prior to distribution in plates (15 μM (hCB2) or 30 μM (hCB1) GDP final). The plates are vortexed and incubated for 60 minutes at room temperature, filtered on Unifilters GF/B (presoaked in water) with the Tomtec or Packard harvester using 3 ml of wash buffer (50 mM Tris, 5 mM MgCl2, 50 mM NaCl, pH 7.0). The filters are dried for 1 hour at 55° C. The radioactivity (cpm) is counted in a TopCount (Packard) after adding 65 μl/well of MS-20 scintillation liquid. Antagonist reversal studies are done in the same way except that (a) an agonist dose-response curve is done in the presence of a constant concentration of antagonist, or (b) an antagonist dose-response curve is done in the presence of a constant concentration of agonist.

Human CB1 receptor (hCB1), sequence (P21554 whole entry): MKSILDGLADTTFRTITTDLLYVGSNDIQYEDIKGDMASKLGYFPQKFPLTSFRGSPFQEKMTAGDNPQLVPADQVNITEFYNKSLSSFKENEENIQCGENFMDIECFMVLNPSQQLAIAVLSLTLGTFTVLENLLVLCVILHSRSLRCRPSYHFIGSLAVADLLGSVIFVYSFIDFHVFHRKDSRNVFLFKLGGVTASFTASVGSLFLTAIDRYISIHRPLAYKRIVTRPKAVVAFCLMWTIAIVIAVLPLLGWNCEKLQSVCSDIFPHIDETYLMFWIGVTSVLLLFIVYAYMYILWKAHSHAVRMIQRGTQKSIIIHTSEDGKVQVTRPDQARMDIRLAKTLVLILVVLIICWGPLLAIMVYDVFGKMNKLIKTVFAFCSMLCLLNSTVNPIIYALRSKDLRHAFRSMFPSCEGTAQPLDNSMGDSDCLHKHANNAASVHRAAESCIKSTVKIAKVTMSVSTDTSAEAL

| SMILES | hCB1 EMax |
| --- | --- |
| CCN(CC(=O)NCCO)C(=O)c1ccc2c(c1)c1c(n2S(=O)(=O)CC)CCC(C2CCOCC2)C1 (centres unmarked) [N-ethyl-9-ethylsulfonyl-N-(2-hydroxyethylcarbamoylmethyl)-6-(oxan-4-yl)-5,6,7,8-tetrahydrocarbazole-3-carboxamide] | 115% |
| Cn1c2c(c3cc(C(=O)N4CC[C@H](C(=O)NCCF)C4)ccc31)CC(C1CCOCC1)CC2 (stereo partly drawn) [(3S)-N-(2-fluoroethyl)-1-[9-methyl-6-(oxan-4-yl)5,6,7,8-tetrahydrocarbazole-3-carbonyl]pyrrolidine-3-carboxamide] | 113% |
| CNC(=O)CCCN(C)C(=O)c1ccc2c(c1)c1c(n2C)CCC(C2CCOCC2)C1 (centres unmarked) [N,9-dimethyl-N-[3-(methylcarbamoyl)propyl]-6-(oxan-4-yl)-5,6,7,8-tetrahydrocarbazole-3-carboxamide] | 121% |
| CN(CCCC(=O)NCCF)C(=O)c1ccc2c(c1)c1c(n2C)CCC(C2CCOCC2)C1 (centres unmarked) [N-[3-(2-fluoroethylcarbamoyl)propyl]-N,9-dimethyl-6-(oxan-4-yl)-5,6,7,8-tetrahydrocarbazole-3-carboxamide] | 131% and 112% |
| CN(CC(=O)NC1CC1)C(=O)c1ccc2c(c1)c1c(n2C)CCC(C2CCOCC2)C1 (centres unmarked) [N-(cyclopropylcarbamoylmethyl)-N,9-dimethyl-6-(oxan-4-yl)-5,6,7,8-tetrahydrocarbazole-3-carboxamide] | 107% |
| Cn1c2c(c3cc(C(=O)N4CC[C@H](C(=O)NC5CC5)C4)ccc31)CC(C1CCOCC1)CC2 (stereo partly drawn) [(3S)-N-cyclopropyl-1-[9-methyl-6-(oxan-4-yl)5,6,7,8-tetrahydrocarbazole-3-carbonyl]pyrrolidine-3-carboxamide] | 127% |
| CCN(CC(=O)NCCF)C(=O)c1ccc2c(c1)c1c(n2C)CCC(C2CCOCC2)C1 (centres unmarked) [N-ethyl-N-(2-fluoroethylcarbamoylmethyl)-9-methyl-6-(oxan-4-yl)-5,6,7,8-tetrahydrocarbazole-3-carboxamide] | 119% and 111% |
| CCN(CC(=O)NC1CC1)C(=O)c1ccc2c(c1)c1c(n2C)CCC(C2CCOCC2)C1 (centres unmarked) [N-(cyclopropylcarbamoylmethyl)-N-ethyl-9-methyl-6-(oxan-4-yl)-5,6,7,8-tetrahydrocarbazole-3-carboxamide] | 118% and 106% |
